{"source": "patent US11260050B2", "about": "“Combination of cotinine plus antioxidant for treatment-resistant depression and correction of astrocytes functional deficit induced by depression and other neuropathological” (UNIVERSIDAD SAN SEBASTIAN, priority 2017, dated 2022)", "key": {"[1]": {"tested_on": "mice subjected to fear conditioning", "assay": "Elevated plus maze after fear conditioning (Example 1, Experiment 3)", "format": "in vivo, C57BL/6 mice", "conditions": "FC mice, IN post-treatment; Veh 68.14±5.573, N=5", "procedure": "Mice were treated via IN 2 hours after fear conditioning and continuously until euthanasia.\nMice (n=5-6/condition) received daily treatments with 1. PBS (phosphate buffer saline, pH 7.4) via intranasal (2×12 μl/nostril), 2. Cotinine dissolved in PBS via intranasal (Cot IN, 10 mg/ml, 2×12 μl/nostril); 3. Cotinine+krill oil both dissolved in PBS via intranasal (Cot IN, 10 mg/ml+KO, 48 mg/ml, 2×12 μl/nostril).\nContextual FC was performed as described. The conditioning chamber used is surrounded by a sound-attenuating box with a camera connected to freeze frame software (MED Associates Inc.), also equipped to provide a background white noise (72 dB). The conditioning chamber (33 cm×20 cm×22 cm) contains in one side a speaker and in the opposite slide has a 24V light. The chamber has a 36-bar insulated shock grid floor. Mice were placed in the conditioning chamber for 2 min before the onset of a discrete tone (a sound that will last 30 seconds (sec) at 2,800 Hz and 85 dB). In the last two seconds of this tone, mice received a foot shock of 1 mA and kept in the conditioning chamber for 2 min and then returned to their cages. Between trials, the chamber was sanitized with 70% ethanol and dried. Freezing behavior that is defined as the absence of all movement except the one needed for breathing was assessed using the FreezeView Software (MED Associates Inc.). […]"}, "restrained mice": {"tested_on": "restrained mice", "assay": "Forced swim test, oral co-treatment during restraint stress (Example 3)", "format": "in vivo, C57BL/6J mice", "conditions": "oral cotinine 5 mg/kg, KO 143 mg/kg or both, vs vehicle-treated restrained mice", "procedure": "Mice after acclimatization and one week of handling were randomly divided into five groups (n=8/condition) and orally treated as follow: 1) control non-restrained mice treated with vehicle (PBS, pH 7.4); 2) restrained mice treated with vehicle; 3), restrained mice treated with a cotinine solution (5 mg/kg in PBS, pH 7.4) via gavage; 4) restrained mice treated with KO (143 mg/kg); 5) restrained mice treated with cotinine plus KO solution. Mice were started with treatments, the first day of restraint and continuously until euthanasia. Treatments were administered at the same time of the day, 30 min before restraint. After 21 days into treatments, mice were behaviorally tested (FIG. 17).\nRestraint stress (RS) was used as a model of chronic stress-induced depressive-like behavior and cognitive impairment. We used this task because is a reliable method that mimics the effects of chronic stress without causing physical pain or unnecessary discomfort to the mice. Mice were gently introduced into a 50-ml conical transparent plastic tubes (Corning Inc.). The tubes contain non-protruding perforations in both ends and in the walls to permit ventilation and only permitted slight movements. […]\nThe forced swim (FS) is a broadly used task to assess depressive-like behavior in rodents. […] Immobility time was recorded and quantified by two investigators blind to the treatment groups."}, "conditioned mice": {"tested_on": "conditioned mice", "assay": "Fear retention and extinction tests after fear conditioning (Example 4)", "format": "in vivo, Mice C57BL/6", "procedure": "Three-month-old mice (n=5-6/condition) were weighed and assigned to treatment groups. Mice were treated with vehicle or drugs, starting two h after fear conditioning and daily after behavioral testing until euthanasia. Mice received daily treatments with 1. PBS (phosphate buffer saline, pH 7.4) via intranasal; 2. Cotinine (10 mg/ml) dissolved in PBS via intranasal (IN Cot, 24 μl); 3. Krill oil dissolved in PBS, via intranasal (48 mg/ml, 24 μl); 4. Cotinine (10 mg/ml) plus krill oil dissolved in PBS, via intranasal (48 mg/ml, 24 μl); 5.\nFor intranasal delivery, mice were hand-restrained, placed in a supine position, and given two 12 μl drops of cotinine solutions, or PBS, into both nares consecutively. Mice were given an extra 12 μl treatment drop if the subject forcibly ejected or sneezed out the solution. Mice were held supine for 5-10 seconds after delivery to ensure that all fluid was inhaled.\nContextual fear conditioning was performed as described. The conditioning chamber used (33 cm×20 cm×22 cm) is surrounded by a sound-attenuating box with a camera connected to freeze frame software (MED Associates Inc.) and equipped to provide a background white noise (72 dB). The conditioning chamber contains in one side a speaker and in the opposite side has a 24V light, and a 36-bar insulated shock grid floor. To perform this test, each mouse was placed in the conditioning chamber for 2 min before the onset of a discrete tone (a sound that will last 30 seconds (sec) at 2,800 Hz and 85 dB). In the last two seconds of this tone, mice received a foot shock of 1 mA, kept in the conditioning chamber for 2 min and returned to their home cages. Between trials, the chamber was sanitized with 70% ethanol and dried. Freezing behavior was defined as the absence of all movement except the one needed for breathing was assessed using the FreezeView Software (MED Associates Inc.).\nFear retention and extinction experiments were performed as described, using the same cohorts of mice and reproduced in two separate experiments. To assess fear retention and mice underwent re-exposure to the conditioning chamber in the absence of an unconditioned stimulus (shock or auditory cues) for 3 minutes (min) in daily extinction trials. Freezing behavior was measured using the ANY-Maze® software (Stoelting CO, USA). The extinction trials were continued until the decrease in freezing behavior reached a stable level."}}}
{"smiles": "CN1C(=O)CC[C@H]1c1cccnc1", "note": "[Cotinine, (5S)-1-methyl-5-(3-pyridyl) pyrrolidin-2-one]", "values": [{"measurement": "time spent in the open arms (EPM)", "setting": "[1]", "value": "increase in the time spent in the open arms but the difference did not reached significance"}, {"measurement": "immobility in the forced swim test", "setting": "restrained mice", "value": "no significant differences"}, {"measurement": "freezing behavior during daily extinction trials (speed of fear extinction)", "setting": "conditioned mice; 5 days of extinction, daily treatment", "value": "faster extinction of fear"}, {"measurement": "day on which maximal decrease in freezing was reached", "setting": "conditioned mice; same time as mice treated with PBS", "value": 4, "unit": "days"}, {"measurement": "fear reaction (freezing) in the retention test", "setting": "conditioned mice; treatment started 2 h after FC, IN cotinine 10 mg/ml, IN KO 48 mg/ml, oral sertraline 3 mg/kg", "value": "significant decrease in the fear reaction in the retention test"}]}
